From patent publication US20250230470A1, “SAFETY SWITCHES TO CONTROL IN VITRO AND IN VIVO PROLIFERATION OF CELL THERAPY PRODUCTS” (Sana Biotechnology, Inc., priority 2024, published 2025)

Tests used:
Format in all cases: cell-based
[1] = test system: CDA_CDK1 pancreatic progenitors; experiment: Ki67 staining by flow cytometry of pancreatic progenitor cells untreated or treated with 5-FC; conditions: CDA_CDK1 pancreatic progenitor culture; 100 μM 5-FC
Description: (§1) In order to test whether the CDA-induced killing was specific to proliferative cells, pancreatic progenitor cells, untreated or treated with 100 μM of 5-FC, were stained for proliferation marker Ki67 and analyzed by flow cytometry.

[2] = test system: CDA_AURKB pancreatic progenitors; experiment: as above; conditions: 100 μM 5-FC
Description: as §1

[3] = test system: CDA_AAVS1 pancreatic progenitors; experiment: as above; conditions: 100 μM 5-FC
Description: as §1

[4] = test system: CDA_CDK1 iPSCs and pancreatic progenitors; experiment: Cell viability after 5-FC (CDA kill switch) in directed differentiation
Description: (§2) To validate iCaspase 9 and cytosine deaminase (CDA) kill switch function in vitro, undifferentiated iPSCs and differentiated pancreatic progenitors with either iC9 or CDA knocked into the AURKB or CDK1 loci were tested for selective killing of pluripotent and proliferative cells in a directed differentiation into beta islet cells.
(§3) The kill switch function of CDA, which is inherently specific to proliferative cells, at the AURKB and CDK1 loci was tested in pancreatic progenitor cells generated by directed differentiation from CDA_AURKB iPSCs or CDA_CDK1 iPSCs. […] The partial loss-of-function was similarly observed in the control cell lines with CDA knocked into the AAVS1 locus.

[5] = test system: CDA_AURKB iPSCs and pancreatic progenitors; experiment: as above
Description: as §2, §3

[6] = test system: CDA_AAVS1 iPSCs and pancreatic progenitors; experiment: as above; conditions: 100 μM 5-FC
Description: as §2, §3

[7] = test system: control iPSC (dko) and day 12 pancreatic progenitor cells; experiment: as above; conditions: increasing concentrations of 5-FC
Description: as §2, §3

In the case of `Nc1nc(=O)[nH]cc1F` [5-FC, 5-fluorocytosine], the “clearance of Ki-67 expressing cells” value [1] is reported as “clearance of most of the proliferative cells”, the “clearance of Ki-67 expressing cells” value [2] is reported as “a large subset of Ki-67 expressing cells was cleared” and the “clearance of Ki-67 expressing cells” value [3] is reported as “clearance of most of the proliferative cells”. For the same compound, the cell viability ([4]; CDA_CDK1 iPSCs, 100 μM 5-FC) was “complete cell death”, the cell killing ([4]; CDA_CDK1 pancreatic progenitors, day 12 of differentiation) was “partially lost CDA function” and the cell killing ([5]; CDA-AURKB pancreatic progenitors, day 12 of differentiation) was “partial loss of CDA function”. The “5-FC concentration at which viability began to decrease” value ([5]; CDA_AURKB iPSCs) was “about 5 μM”, the cell viability ([5]; CDA_AURKB iPSCs, about 100 μM 5-FC) was “complete cell death” and the cell viability ([6]; CDA_AAVS1 iPSCs) was “no viable CDA_AAVS1 iPSCs”. The viability at 100 µM ([6]; iPSC, read-out: cells remained viable, CDA_AAVS1 pancreatic progenitors) was 50% and the cell viability [7] was “maintained viability”.
